The text below walks through data of article PMC9430695.

Molecules are shown by their SMILES.

The target in the first assay is T1, Sortase A (SrtA) (Staphylococcus aureus, UniProt Q2FV99).
T1 construct: SrtA residues Gln-60-Lys-206 (SrtA ΔN59), from S. aureus USA300, 6 × His tag
T1 sequence (Q2FV99 60-206): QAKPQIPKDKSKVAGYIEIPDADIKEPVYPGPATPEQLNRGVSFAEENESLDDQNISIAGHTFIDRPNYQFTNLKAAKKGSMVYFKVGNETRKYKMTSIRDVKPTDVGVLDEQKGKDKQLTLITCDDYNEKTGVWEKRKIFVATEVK
Description: biochemical. More on the design: FRET cleavage of Abz-LPATG-Dap(Dnp)-NH2 by purified SrtA, fluorescence 309/420 nm. To be noted: library screen; read-out: Relative inhibition rate (%). Here is the method:
Fluorescence resonant energy transfer (FRET) was used to screen the effect of the SrtA inhibitor ([22]). Purified SrtA (4 μM) and hibifolin with different concentrations were added into a 100 μL reaction system, incubating at 37°C for 1 h. A fluorescent substrate peptide Abz-LPATG-Dap (Dnp)-NH2 (10 μM) (Beijing, China) was added to initiate the reaction. After incubating at 37°C for 20 min, the fluorescent microplate reader was measured with the excitation wavelength at 309 nm and the emission wavelength at 420 nm. Subsequently, a gradient concentration inhibition curve was performed and IC50 was calculated. When the inhibitory activity was greater than 60%, the compound was considered a potential inhibitor. The representative list of our nature compounds library has been compiled in Table S3 in Supplemental File 1 along with the results of the initial screening.
On to `O=c1c(O[C@@H]2O[C@H](CO)[C@@H](O)[C@H](O)[C@H]2O[C@@H]2O[C@H](CO)[C@@H](O)[C@H](O)[C@H]2O)c(-c2ccc(O)c(O)c2)oc2cc(O)cc(O)c12` [Quercetin 3-O-sophoroside], for which the inhibition at 64 µg/mL amounted to 37.8%. Consider `O=C(O[C@H]1[C@H](Oc2c(-c3ccc(O)c(O)c3)oc3cc(O)cc(O)c3c2=O)O[C@H](CO)[C@H](O)[C@@H]1O)c1cc(O)c(O)c(O)c1` [2"-O-Galloylhyperin], for which the inhibition at 64 µg/mL worked out at 42.4%.

In the case of `COc1cc(O)c2c(=O)cc(-c3ccc(OC)c(-c4c(O)cc(O)c5c(=O)cc(-c6ccc(O)cc6)oc45)c3)oc2c1` [Ginkgetin], the inhibition at 64 µg/mL was 0.25%. With `COc1ccc(-c2cc(=O)c3c(OC)c(OC)c(OC)cc3o2)cc1OC` [Sinensetin], the inhibition at 64 µg/mL was determined as 23.8%.

As to `COc1c(O[C@@H]2O[C@H](CO)[C@@H](O)[C@H](O)[C@H]2O)cc2occ(-c3ccc(O)cc3)c(=O)c2c1O` [Tectoridin], the inhibition at 64 µg/mL was 20%. On to `Oc1cc(O)c2c(c1)O[C@H](c1ccc(O)c(O)c1)[C@H](O)[C@H]2c1c(O)cc(O)c2c1O[C@H](c1ccc(O)c(O)c1)[C@H](O)C2` [Procyanidin B2], for which the inhibition at 64 µg/mL came to 13.8%. Regarding `O=C(/C=C/c1ccc(O)c2c1[C@H](C(=O)O)[C@@H](c1ccc(O)c(O)c1)O2)O[C@H](Cc1ccc(O)c(O)c1)C(=O)O` [Lithospermic acid], the inhibition at 64 µg/mL is 51.7%.

As to `O=c1c(O[C@@H]2O[C@H](CO)[C@@H](O)[C@H](O)[C@H]2O[C@@H]2OC[C@@H](O)[C@H](O)[C@H]2O)c(-c2ccc(O)cc2)oc2cc(O)cc(O)c12` [Leucoside], the inhibition at 64 µg/mL stood at 27.3%. On to `C/C=C/c1cc(OC)c2c(c1)[C@@H](C)[C@H](c1ccc3c(c1)OCO3)O2` [(-)-Licarin B], for which the inhibition at 64 µg/mL is 38.9%. Turning to `O=c1c(-c2ccc(O[C@@H]3O[C@H](CO)[C@@H](O)[C@H](O)[C@H]3O)cc2)coc2cc(O)cc(O)c12` [Sophoricoside], the inhibition at 64 µg/mL amounted to 14.4%. Turning to `COc1ccc(-c2cc(=O)c3c(O)cc(O)cc3o2)cc1-c1c(O)cc(O)c2c(=O)cc(-c3ccc(O)cc3)oc12` [Bilobetin], the inhibition at 64 µg/mL stood at 17.8%. On the same count and under the same terms, as for `COc1ccc(-c2coc3cc(OC)ccc3c2=O)cc1` [7,4'-Dimethoxyisoflavone], the figure is 44%; as for `COc1ccc([C@@H]2OC[C@H]3[C@@H]2CO[C@@H]3c2ccc(O[C@@H]3O[C@H](CO)[C@@H](O)[C@H](O)[C@H]3O)c(OC)c2)cc1OC` [Forsythin], 14.8%.

For `O=c1c(O[C@@H]2O[C@@H](CO)[C@H](O)[C@H]2O)c(-c2ccc(O)c(O)c2)oc2cc(O)cc(O)c12` [Avicularin], the inhibition at 64 µg/mL is 45.3%. Turning to `O=c1cc(-c2ccc(O)cc2)oc2cc(O[C@@H]3O[C@H](CO)[C@@H](O)[C@H](O)[C@H]3O)cc(O)c12` [Cosmosiin], the inhibition at 64 µg/mL stood at 46.8%.

Turning to `COc1cc(-c2coc3cc(O)c(OC)c(O)c3c2=O)cc(O)c1OC` [Irigenin], the inhibition at 64 µg/mL was 30.3%. As for `COc1cc(-c2oc3cc(O)cc(O)c3c(=O)c2O[C@@H]2O[C@H](CO[C@@H]3O[C@@H](C)[C@H](O)[C@@H](O)[C@H]3O)[C@@H](O)[C@H](O)[C@H]2O)ccc1O` [Narcissin], the inhibition at 64 µg/mL came to 44.5%. `COc1ccc(-c2cc(=O)c3c(O)c(OC)c(OC)c(OC)c3o2)cc1OC` [5-Demethylnobiletin]: the inhibition at 64 µg/mL is 54.3%. With `COc1ccc(-c2oc3cc(OC)cc(O)c3c(=O)c2OC)cc1` [Kaempferol 3,7,4'-trimethyl ether], the inhibition at 64 µg/mL was 32.6%. Regarding `O=C(O)[C@H]1O[C@@H](Oc2c(O)cc(O)c3c(=O)c(O)c(-c4ccc(O)c(O)c4)oc23)[C@H](O)[C@@H](O)[C@@H]1O` [hibifolin], the inhibition at 64 µg/mL is 65.3%. Turning to `COc1cc2c(c(OC)c1OC)-c1c(cc3c(c1OC)OCO3)[C@H](OC(C)=O)[C@H](C)[C@H](C)C2` [Kadsurin], the inhibition at 64 µg/mL stood at 16.9%. For the compound `COc1cc(C[C@H](C)[C@H](C)Cc2ccc3c(c2)OCO3)ccc1O` [Anwulignan], the inhibition at 64 µg/mL came to 15.6%. For `CC(C)=CCC/C(C)=C/Cc1cc(-c2coc3cc(O)ccc3c2=O)ccc1O` [Corylifol A], the inhibition at 64 µg/mL was determined as 36.8%. As to `O=c1cc(-c2ccc(O)cc2)oc2cc(O)c(O)c(O)c12` [Scutellarein], the inhibition at 64 µg/mL was 42.1%.

Regarding `COc1cc(-c2oc3cc(OC)c(OC)c(O)c3c(=O)c2OC)ccc1O` [Chrysosplenetin], the inhibition at 64 µg/mL turned out to be 34.2%.

On to `COc1ccc(-c2cc(=O)c3c(OC)cc(OC)c(OC)c3o2)cc1` [5,7,8,4'-Tetramethoxyflavone], for which the inhibition at 64 µg/mL was found to be 27.4%.

With `COc1c(O)cc2oc(-c3ccc(O)cc3)cc(=O)c2c1O` [Hispidulin], the inhibition at 64 µg/mL was determined as 50%. With `COc1ccc(-c2oc3cc(OC)c(OC)c(O)c3c(=O)c2OC)cc1OC` [Artemetin], the inhibition at 64 µg/mL came to 32.8%. Regarding `C=CCc1cc(OC)c(O[C@@H](C)[C@H](O)c2ccc(O)c(OC)c2)c(OC)c1` [Myrislignan], the inhibition at 64 µg/mL was found to be 1.72%.

The same assay, now with this note: read-out: SrtA relative inhibition rate (%).
Turning to `COC(=O)[C@H]1O[C@@H](Oc2cc3oc(-c4ccc(O)cc4)cc(=O)c3c(O)c2O)[C@H](O)[C@@H](O)[C@@H]1O` [Scutellarin Methyl Ester], the inhibition at 64 µg/mL was 73.8%. `O=c1cc(-c2ccc(Oc3c(O)cc4oc(-c5ccc(O)cc5)cc(=O)c4c3O)cc2)oc2cc(O)cc(O)c12` [Hinokiflavone]: the inhibition at 64 µg/mL is 36.2%. With `COc1ccc(-c2oc3cc(O)cc(O)c3c(=O)c2O)cc1O` [Tamarixetin], the inhibition at 64 µg/mL turned out to be 26.2%.

As for `C[C@@H]1O[C@@H](Oc2cc(O)c3c(=O)c(O)c(-c4ccc(O)c(O)c4)oc3c2)[C@H](O)[C@H](O)[C@H]1O` [Vincetoxicoside B], the inhibition at 64 µg/mL is 57.2%.

As for `O=c1cc(-c2ccc(O)cc2)oc2c([C@@H]3O[C@H](CO)[C@@H](O)[C@H](O)[C@H]3O)c(O)c([C@@H]3O[C@H](CO)[C@@H](O)[C@H](O)[C@H]3O)c(O)c12` [Vicenin-2], the inhibition at 64 µg/mL stood at 67.6%. Regarding `O=C(O)[C@H]1O[C@@H](Oc2c(O)cc(O)c3c(=O)c(O)c(-c4ccc(O)c(O)c4)oc23)[C@H](O)[C@@H](O)[C@@H]1O` [hibifolin], the inhibition at 64 µg/mL stood at 74.6%. On the same count and under the same terms, as for `O=C1c2c(O)cc(O)cc2O[C@H](c2ccc(O)c(O)c2)[C@H]1O` [Taxifolin], the figure is 56%.

The target in the next assay is T1, Sortase A (SrtA). Description: fluorescence quenching (KA); also FRET inhibition of purified SrtA, IC50 […]. To be noted: read-out: fluorescence quenching (KA), IC50 31.20 μ (converted). The format is binding.
With `O=C(O)[C@H]1O[C@@H](Oc2c(O)cc(O)c3c(=O)c(O)c(-c4ccc(O)c(O)c4)oc23)[C@H](O)[C@@H](O)[C@@H]1O` [hibifolin], the Kd was 58.1 µM.
